# Source: patent publication US9149051B2, “Dairy composition with high-potency sweetener” (THE COCA-COLA COMPANY, priority 2005, dated 2015)
# Assay: Rate of dissolution in H2O at 25° C. of rebaudioside A polymorph and amorphous forms
# Type: physicochemical
# Details: rating in words
# From the text: The purification of rebaudioside A by crystallization as described above results in the formation of at least three different polymorphs: Form 1: a rebaudioside A hydrate; Form 2: an anhydrous rebaudioside A; and Form 3: a rebaudioside A solvate. In addition to the at least three polymorph forms of rebaudioside A, the purification of rebaudioside A may result in the formation of an amorphous form of rebaudioside A, Form 4. The aqueous organic solution and temperature of the purification process influence the resulting polymorph and amorphous forms in the substantially pure rebaudioside A composition. FIGS. 1-5 are exemplary powder x-ray diffraction (XRPD) scans of the polymorph and amorphous forms of rebaudioside A: Form 1 (hydrate), Form 2 (anhydrate), Form 3A (methanol solvate), Form 3B (ethanol solvate), and Form 4 (amorphous), respectively.
substance,measurement,value
rebaudioside A [Form 1],Rate of dissolution in H2O at 25° C.,Very low
rebaudioside A [Form 2],Rate of dissolution in H2O at 25° C.,Intermediate
rebaudioside A [Form 3],Rate of dissolution in H2O at 25° C.,High
rebaudioside A [Form 4],Rate of dissolution in H2O at 25° C.,High
